Results on seven compounds are retold here after patent EP4378525A1, “NON PEPTIDERGIC AGONISTS OF OXYTOCIN RECEPTOR” (Université de Strasbourg, priority 2022, dated 2024).

The target in one series is T1, oxytocin receptor (Homo sapiens, UniProt P30559).
T1 construct: expressed in transfected cells; host or cells: CHO cell lines
T1 sequence (P30559 1-389): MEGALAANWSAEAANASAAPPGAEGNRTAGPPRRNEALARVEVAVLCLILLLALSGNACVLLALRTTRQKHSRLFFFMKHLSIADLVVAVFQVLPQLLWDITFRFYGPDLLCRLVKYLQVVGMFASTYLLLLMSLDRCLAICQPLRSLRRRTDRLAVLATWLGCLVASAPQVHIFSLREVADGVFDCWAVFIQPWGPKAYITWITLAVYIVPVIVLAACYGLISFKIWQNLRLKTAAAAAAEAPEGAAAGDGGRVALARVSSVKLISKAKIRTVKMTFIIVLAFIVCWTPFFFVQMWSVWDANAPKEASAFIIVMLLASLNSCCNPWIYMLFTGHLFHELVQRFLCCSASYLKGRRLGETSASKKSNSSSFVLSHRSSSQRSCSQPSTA
Description: IP-One IP1 accumulation assay in CHO cell lines expressing oxytocin receptor (agonist activation). Format: cell-based. The settings on record: n=3; for Emax: CHO, percentage of the endogenous agonist maximal stimulation, read-out: OT-R Emax. How it is done: The activation constants (EC50 in nM) were measured in CHO cell lines expressing oxytocin receptor by IP-One IP1 accumulation assay. These values are the mean ± SEM of at least three separate experiments performed in triplicate. […] When there is only a weak stimulation, results are expressed as percentages of the endogenous agonist maximal stimulation at [ligand] = 1 µM (n = 2). Results are not significant (ns) when there is <10% response at [ligand] = 1 µM (n = 2).

In the next series the target is V1A-R (Homo sapiens, UniProt P37288). The experiment in a line: V1A receptor antagonist assay measured as calcium signal. Format: cell-based. As to conditions: n=3; for Ratio V1A/OT: V1A-R IC50 / OT-R EC50; for pIC50: antagonist, calcium signal, read-out: V1A-R (Antago) IC50. The source says: Comparison of efficacy as OT receptor agonist (measured as described in example 2), or as VIA receptor antagonist (measured as calcium signal, as follows), has been performed.
Chain of V1A-R (P37288 whole entry, species assumed): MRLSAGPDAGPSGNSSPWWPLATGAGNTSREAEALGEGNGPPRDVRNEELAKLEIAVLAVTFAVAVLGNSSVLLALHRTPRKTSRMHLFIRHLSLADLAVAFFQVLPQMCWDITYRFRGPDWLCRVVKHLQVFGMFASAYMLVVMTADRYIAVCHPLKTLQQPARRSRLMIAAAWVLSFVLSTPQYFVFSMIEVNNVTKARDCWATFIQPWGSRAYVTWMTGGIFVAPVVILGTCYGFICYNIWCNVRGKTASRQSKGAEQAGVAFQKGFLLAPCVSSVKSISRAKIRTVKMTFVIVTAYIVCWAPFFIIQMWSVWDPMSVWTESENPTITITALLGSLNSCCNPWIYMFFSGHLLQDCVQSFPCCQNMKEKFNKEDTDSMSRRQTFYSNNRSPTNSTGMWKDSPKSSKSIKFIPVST

The conditions of series [1]: in vivo; cited from earlier work.
Where [2] appears, read: CHO cell lines expressing oxytocin receptor, IP1 accumulation, read-out: OT-R EC50.
Where [3] appears, read: selectivity table, measured as described in example 2, read-out: OT-R (Ago) EC50.

pEC50, pIC50: −log10 of the molar value. Like-named read-outs stand apart in the source and are kept apart here.

The term Emax denotes the maximal effect, on the per cent scale that the assay sets. Usually pEC50 stands for the negative decadic logarithm of the EC50, by convention in mol/L. For the compound `Cc1cc(C(=O)N2Cc3cnn(C)c3Nc3ccccc32)ccc1CNC(=O)N1C[C@H](N=[N+]=[N-])C[C@H]1C(=S)N(C)C` [Compound 2], the maximal response (Emax) on oxytocin receptor was 80%. Moreover, the pEC50 at oxytocin receptor (setting [2]) was 7.41.
The pIC50 is −log10 of the IC50, conventionally taken in molar units. As for `Cc1cc(C(=O)N2Cc3cnn(C)c3Nc3ccccc32)ccc1CNC(=O)N1C[C@@H](n2cc(CO)nn2)C[C@H]1C(=S)N(C)C` [Compound 6], the maximum response (Emax) at oxytocin receptor amounted to 100%. The pEC50 at oxytocin receptor (setting [2]) was 9.15; on oxytocin receptor (setting [3]) it was 8.95. Besides, the “Ratio V1A/OT” value at V1A-R came to 117. In addition, the pIC50 at V1A-R was 6.88.
`Cc1cc(C(=O)N2Cc3cnn(C)c3Nc3ccccc32)ccc1CNC(=O)N1C[C@H](n2cc(CN)nn2)C[C@H]1C(=S)N(C)C` [Compound 8]: on oxytocin receptor, the Emax stood at 120%. For the same compound, at oxytocin receptor (setting [2]), the pEC50 is 7.48.
For the compound `Cc1cc(C(=O)N2Cc3cnn(C)c3Nc3ccccc32)ccc1CNC(=O)N1C[C@H](n2cc(COCCOCCO)nn2)C[C@H]1C(=S)N(C)C` [Compound 14], on oxytocin receptor (setting [2]), the negative-log EC50 (pEC50) is 8.00.
For the compound `CCCc1cn([C@@H]2C[C@@H](C(=S)N(C)C)N(C(=O)NCc3ccc(C(=O)N4Cc5cnn(C)c5Nc5ccccc54)cc3C)C2)nn1` [Compound 19], the negative logarithm of the EC50 (pEC50) on oxytocin receptor (setting [2]) was 7.51.
In the case of `Cc1cc(C(=O)N2Cc3cnn(C)c3Nc3ccccc32)ccc1CNC(=O)N1CCC[C@H]1C(=S)N(C)C` [Reference, reference compound], the maximum response (Emax) on oxytocin receptor was 96.7%. For the same compound, the pEC50 at oxytocin receptor (setting [2]) is 7.35. Further, the pEC50 at oxytocin receptor (setting [3]) is 7.35. Moreover, on V1A-R, the “Ratio V1A/OT” value came out at 7.7 and the pIC50 was 6.46.
oxytocin [OT]: in series [1], the half-life in blood entry is “about 3 minutes”.
